According to patent US9180111B2, “Reduction in complement activation and inflammation during tissue injury by carotenoids, carotenoid analogs, or derivatives thereof” (Cardax Pharma, Inc., priority 2005, dated 2015):

Experiments:
[1] = target: human serum albumin (HSA) (Homo sapiens, UniProt P02768); test: Plasma-protein binding studies in vitro
[2] = Determination of aqueous solubility/dispersibility; format: physicochemical
Procedure: (§1) 30.13 mg of 3 was added to 1 mL of USP-purified water. The sample was rotated for 2 hours, then centrifuged for 5 minutes. After centrifuging, solid was visible in the bottom of the tube. A 125-μL aliquot of the solution was then diluted to 25 mL. The sample was analyzed by UV/Vis spectroscopy at 436 nm, and the absorbance was compared to a standard curve compiled from 4 standards of known concentration. The concentration of the original supernatant was calculated to be 2.85 mg/mL and the absorptivity was 36.94 AU*mL/cm*mg. Slight error may have been introduced by the small size of the original aliquot.
as §1, with “Next, 30.80” for “30.13”, “9” for “3”, “411” for “436”, “29.27” for “2.85”, “2.90” for “36.94”

Sequence of human serum albumin (HSA) (P02768 25-609): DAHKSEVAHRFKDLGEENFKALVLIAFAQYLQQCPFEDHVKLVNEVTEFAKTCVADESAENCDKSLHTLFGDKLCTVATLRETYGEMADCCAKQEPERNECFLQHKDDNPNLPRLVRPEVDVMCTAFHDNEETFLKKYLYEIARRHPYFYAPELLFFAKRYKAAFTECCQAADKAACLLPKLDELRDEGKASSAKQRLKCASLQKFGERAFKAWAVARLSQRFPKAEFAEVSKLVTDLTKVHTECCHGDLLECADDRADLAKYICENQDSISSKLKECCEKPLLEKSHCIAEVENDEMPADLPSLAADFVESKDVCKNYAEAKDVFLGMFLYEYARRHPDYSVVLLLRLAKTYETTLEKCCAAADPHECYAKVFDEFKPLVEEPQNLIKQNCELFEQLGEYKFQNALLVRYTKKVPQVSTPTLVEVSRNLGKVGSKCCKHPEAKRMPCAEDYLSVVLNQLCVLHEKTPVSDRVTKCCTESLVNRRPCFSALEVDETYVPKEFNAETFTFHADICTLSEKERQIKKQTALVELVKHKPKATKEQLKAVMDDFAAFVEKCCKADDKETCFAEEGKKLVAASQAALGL

## CC1=C(/C=C/C(C)=C/C=C/C(C)=C/C=C/C=C(C)/C=C/C=C(C)/C=C/C2=C(C)C(=O)C(OC(=O)CCC(=O)O)CC2(C)C)C(C)(C)CC(OC(=O)CCC(=O)O)C1=O [meso-(3R,3S)-disodium disuccinate astaxanthin derivative]
[1]
  binding to human serum albumin: bound immediately and preferentially to human serum albumin

## CC1=C(/C=C/C(C)=C/C=C/C(C)=C/C=C/C=C(C)/C=C/C=C(C)/C=C/C2=C(C)C(=O)[C@@H](O)CC2(C)C)C(C)(C)C[C@H](O)C1=O [astaxanthin, reference compound]
[2]
  solubility in water: insoluble in water
